Reference: US9726659B2, “CMPF as a biomarker for diabetes and associated methods” (The Governing Council of the University of Toronto, priority 2012, dated 2017)

How the values were obtained:
MIN6 cells = experiment: Glucose- and KCl-stimulated insulin secretion in MIN6 cells; type: cell-based, murine; details: 200 uM
Experimental: LG=2.8 mM glucose, HG=16.7 mM glucose, KCl=16.7 mM glucose+30 mM KCl. *p<0.05.
Since beta cell failure is a major underlying cause of both GDM and T2D, the effect of increased CMPF on beta cell function was investigated both in vitro and in vivo. Using physiological concentrations of CMPF (20 uM and 200 uM, as observed in our NGT-pregnant and GDM-pregnant samples respectively (FIG. 2)), as well as a vehicle control (EtOH), its effect was studied on glucose-stimulated insulin secretion (GSIS) and insulin secretion in response to direct depolarization using the secretagogue KCl in an immortalized murine beta cell line (MIN6), as well as primary isolated human and murine islets (FIG. 3A). […] Therefore, high physiologically relevant levels of CMPF impair GSIS.

[1] = Plasma CMPF after IP injection; type: in vivo, CD1 mice; details: for up to 2 hours but not at 6 hours post-injection, n=4/group
Experimental: CD1 mice were injected IP with either vehicle control (black) or CMPF (white). A) Plasma samples were taken at 10, 30, 60, 120 and 360 minutes post-IP injection and assayed for CMPF. […] Over the 3-day course of IP injections, mice were monitored for body weight (B), random-fed blood glucose (C) and plasma insulin (C). There was no difference in any of these parameters. Following 3 consecutive days of CMPF injections, mice were fasted for 14 hrs and OGTTs were performed.

islets [2] = experiment: Insulin and proinsulin in the media of 24 hr treated islets; type: cell-based, mouse; details: 24 hr treatment
Experimental: A) Proinsulin in the media of 24 hr treated islets (n=4/group). B) Mitochondrial membrane potential (MMP) following acute addition of vehicle control or 200 μM of CMPF (N=3/group). C) ROS levels in 4- and 24-hour treated mouse islets with representative images (N=10-15 islets/mouse from 4 mice/group). D) Expression of antioxidant genes Cat and (e) Ucp2 (n=4/group). F) ROS accumulation in 24 hr-treated islets treated with 500 μM NAC (n=10 islets/mouse from 4 mice/group). G) GSIS and (h) total insulin content from 24 hr-treated islets co-treated with 500 μM NAC (n=4/group). Western blots showing (i) Ser9 phosphorylation of GSK3β, (j) Ser473 phosphorylation of AKT (n=3/group). K) Immunofluorescent staining showing nuclear translocation of FOXO1 and (l) PDX1 with CMPF and NAC treatment (n=3-6). Quantification of nuclear percentage of (m) FOXO1 and (n) PDX1 based on immunofluorescent staining with CMPF and NAC treatment. […]
Lower total insulin content may be due to beta-cell exhaustion caused by over-stimulation and/or defective insulin production. To determine the mechanism through which CMPF diminishes insulin content, we measured insulin in the media following 24 hr treatment. […] To first determine if CMPF is metabolized by beta-cells, we measured changes in mitochondrial membrane potential (MMP) in mouse islets acutely treated with CMPF. […]

dispersed mouse islets = experiment: Mitochondrial membrane potential (rhodamine 123); type: cell-based; details: 200 μM
Experimental: Dispersed isolated islets were treated with either vehicle control or 200 μM CMPF for 24 hours prior to loading with rhodamine 123 (25 ug/ml, 10 min) in 2.8 mM glucose imaging buffer. 5 mM NaN3 was added to fully depolarize the MMP (Diao et al., 2008).
Lower total insulin content may be due to beta-cell exhaustion caused by over-stimulation and/or defective insulin production. To determine the mechanism through which CMPF diminishes insulin content, we measured insulin in the media following 24 hr treatment. […] Impaired insulin processing has previously been associated with elevated levels of the mitochondrial protein uncoupling protein 2 (UCP2) (Kashemsant and Chan, 2006). Excess substrate for the electron transport chain leads to the formation of ROS, which can induce UCP2 expression. To first determine if CMPF is metabolized by beta-cells, we measured changes in mitochondrial membrane potential (MMP) in mouse islets acutely treated with CMPF. […] This corresponded to a 2-fold increase in ROS in CMPF-treated islets over controls after 4 and 24 hrs of treatment (FIG. 17c). […] The increase in ROS production caused by CMPF-treatment was inhibited by co-treatment with the antioxidant N-Acetyl-Cysteine (NAC) (FIG. 17f). Importantly, co-treatment with NAC rescued insulin secretion and insulin content to near control levels in CMPF-treated islets (FIG. 17g,h). Therefore, oxidative stress caused by CMPF metabolism impaired GSIS and insulin processing, and is reversible through reducing ROS generation.
Given that CMPF causes hyperinsulinemia during the fed-state in vivo, and exaggerated secretion of insulin from islets under non-stimulatory conditions in vitro, we rationalized that there must be a defect in glucose-sensing and/or secretion of insulin that could not be solely explained by effects on insulin production. […] To confirm changes in mitochondrial function, 24 hr CMPF treated islets were analyzed by microarray. […] When organized based on biological process, the largest differentially expressed cluster encompassed genes involved in metabolism (38%) (FIG. 17c). […]

[3] = test system: dispersed CD1 mouse islet cells; experiment: Immunofluorescent staining of FOXO1 and PDX1 localization; type: cell-based; details: CMPF-treated islets
Experimental: The cellular localization of FOXO1 and PDX1 were determined in dispersed CD1 mouse islet cells using immunofluorescence. The presence of the organic anion transporters (OATs) were determined in dispersed human islet cells also using immunofluorescence. Staining was performed as previously described (Diao et al., 2008). Images were acquired using a confocal microscope (Quorum Wave FX Spinning Disc; Perkin Elmer, Waltham M L, USA) and Volocity software (Perkin Elmer).
To determine the mechanism through which CMPF decreases insulin biosynthesis we examined its effect on these key regulators. Under normal conditions, AKT and GSK3β have reciprocal activities. Active pAKT phosphorylates and inactivates GSK3β, preventing phosphorylation of downstream targets (Humphrey et al., 2010). […] FOXO1 is normally sequestered in the cytosol due to phosphorylation by AKT (Kitamura et al., 2005). […] Altered activity of these transcription factors is further confirmed by decreased mRNA levels of key target genes including Inst, transcription factors Pdx1 and Mafa, proinsulin processing enzymes CpE, Pc1 and Pc2, and the glucose transporter Glut2 (Boucher et al., 2006; Kaneto et al. 2008) (FIG. 18a).

islets [4] = experiment: GSIS with CMPF conjugated to fatty acid-free BSA; type: cell-based; details: conjugated for 6 hours prior to addition of islets, N=3
Experimental: CMPF was conjugated to fatty acid free BSA for 6 hours prior to addition of islets for green and blue bars. The same protocol used for the conjugation of oleate was used. Black and white bars indicate addition of CMPF with 0.1% BSA in the media without pre-conjugation. N=3. *P<0.05.

plasma CMPF level after IP injection [1]: significantly elevated
SMILES: CCCc1oc(CCC(=O)O)c(C(=O)O)c1C [CMPF, 3-carboxy-4-methyl-5-propyl-2-furanpropanoic acid]
KCl-stimulated insulin secretion (MIN6 cells; 4 hour pre-incubation): significantly impairs
glucose-stimulated insulin secretion (GSIS) (MIN6 cells; 4 hour pre-treatment, vs 20 uM and vehicle): significantly impaired
accumulation of total insulin in the media (islets [2]): no difference
proinsulin in the media (islets [2]): substantially more proinsulin
MMP hyperpolarization under high glucose (dispersed mouse islets; 24 hrs): significantly reduced MMP hyperpolarization
MMP hyperpolarization under sub-stimulatory glucose (dispersed mouse islets; 24 hrs): significantly greater hyperpolarization
mitochondrial membrane potential, acute addition (dispersed mouse islets; acute): transient membrane hyperpolarization
FOXO1 localization [3]: translocated to the nucleus
PDX1 localization [3]: sequestered outside of the nucleus
effect of conjugation to fatty acid-free BSA on CMPF-impaired GSIS (islets [4]): no effect
